# Results as given in PubChem BioAssay (NCI).
#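 Step 1: Grow cells in 96-well plates. Step 2: Expose to compound for 48 hours at 5 concentrations. Step 3: Interpolate endpoints linearly; if unreached, use highest concentration. GI50 marks 50% less growth. TGI denotes the concentration required for complete inhibition of growth.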
# Legend:
# Assay in all cases: NCI anticancer screen, dose series, 48 h
# [1] = system: COLO 205 colon
# [2] = system: CAKI-1 renal
# [3] = system: SF-268 CNS
# [4] = system: NCI-H460 lung
# [5] = system: SF-539 CNS
# [6] = system: CCRF-CEM leukemia
# [7] = system: NCI-H23 lung
# [8] = system: SK-MEL-28 melanoma
# [9] = system: OVCAR-5 ovarian
# [10] = system: A549 NSCLC
SMILES,GI50 [1],TGI [1],GI50 [2],TGI [2],GI50 [3],TGI [3],GI50 [4],TGI [4],GI50 [5],TGI [5],GI50 [6],TGI [6],GI50 [7],TGI [7],GI50 [8],TGI [8],GI50 [9],TGI [9],GI50 [10],TGI [10]
COc1ccc(-c2ccc(-c3ccc(C(=N)N)o3)o2)cc1,1.25 µM,2.94 µM,1.75 µM,4.29 µM,2.04 µM,7.22 µM,1.17 µM,3.28 µM,1.88 µM,3.63 µM,1.84 µM,6.75 µM,4.34 µM,18.3 µM,1.67 µM,3.66 µM,2.42 µM,5.88 µM,1.49 µM,4.79 µM
O=C1c2ccccc2-c2c1c1ccccc1c(=O)n2CCCn1ccnc1,5.41 µM,> 100 µM,0.443 µM,2.05 µM,3.64 µM,> 100 µM,1.17 µM,10.4 µM,2.33 µM,8.06 µM,1.51 µM,> 100 µM,1.84 µM,6.05 µM,3.47 µM,> 100 µM,3.05 µM,53.6 µM,1.87 µM,4.74 µM
CCNC(=O)O[C@H]1CN[C@H](C#Cc2cc3ncnc(Nc4ccc(OCc5cccc(F)c5)c(Cl)c4)c3s2)C1,6.9 µM,> 17.7 µM,0.88 µM,> 25 µM,6 µM,> 25 µM,6.84 µM,> 25 µM,5.77 µM,> 18.4 µM,2.91 µM,> 25 µM,9.13 µM,> 25 µM,> 25 µM,> 25 µM,8.98 µM,> 25 µM,5.29 µM,> 25 µM
Cc1cnc(C(=O)Nc2nc3ccc(S(=O)(=O)Nc4ccc(C5(C(F)(F)F)CC5)cc4)cc3[nH]2)cn1,0.414 µM,9.35 µM,0.36 µM,15.7 µM,0.733 µM,11.9 µM,0.351 µM,3.95 µM,0.314 µM,3.3 µM,0.379 µM,22.8 µM,0.416 µM,5.98 µM,1.19 µM,12.2 µM,0.785 µM,10.9 µM,0.57 µM,9.66 µM
OCC#Cc1ccccc1C#CCCCCCC#Cc1ccccc1C#CCO,22.8 µM,72.2 µM,19.3 µM,43.8 µM,18.8 µM,38.7 µM,17.4 µM,34 µM,20 µM,36.3 µM,22.9 µM,49.6 µM,18.4 µM,33.6 µM,29 µM,> 100 µM,12.8 µM,28.6 µM,19.2 µM,45.3 µM
C=C1C(=O)O[C@H]2[C@H]1CC/C(Cn1cc(-c3ccccc3C(F)(F)F)nn1)=C\CC[C@@]1(C)O[C@@H]21,1.98 µM,3.81 µM,1.31 µM,2.63 µM,2.09 µM,5.25 µM,3.97 µM,17.7 µM,1.76 µM,3.56 µM,0.767 µM,10.1 µM,1.75 µM,3.57 µM,1.75 µM,3.47 µM,2.46 µM,8.95 µM,7.23 µM,21.8 µM
COc1cccc(/C=N/C(/N=C/c2cccc(OC)c2O)c2cccc(OC)c2O)c1O,,> 100 µM,,48.1 µM,,42.5 µM,,59.9 µM,,48.9 µM,,> 100 µM,,> 100 µM,,> 100 µM,,73.8 µM,,78.8 µM
N#CC1CC2(CCN1C(=O)c1ccccc1)OCCO2 (stereo not drawn),,> 100 µM,,> 100 µM,,> 100 µM,,> 100 µM,,> 100 µM,,> 100 µM,,> 100 µM,,,,> 100 µM,,> 100 µM
COc1cccc(NC(=O)/C(Cc2nc3ccccc3nc2C)=N/NC(=O)C[n+]2ccccc2)c1,,44.6 µM,,> 100 µM,,> 100 µM,,> 100 µM,,> 100 µM,,> 100 µM,,> 100 µM,,> 100 µM,,> 100 µM,,> 100 µM
Cc1ccc(O)c(NC(=O)c2ccc(CNc3ccnc(C(F)(F)F)c3)cc2)c1,5.57 µM,20.1 µM,6.33 µM,40.6 µM,10.8 µM,38 µM,3.7 µM,21.9 µM,4.16 µM,20.9 µM,0.496 µM,17.7 µM,10.6 µM,53.3 µM,13.8 µM,39.9 µM,16.3 µM,69.1 µM,12.9 µM,> 100 µM
O=C1C(=Cc2c(O)cc(O)cc2O)C(=O)c2ccccc21,,> 56 µM,,> 65.5 µM,,> 63.1 µM,,> 67.7 µM,,> 58.5 µM,,> 73.1 µM,,> 53.9 µM,,> 60.3 µM,,> 57.7 µM,,> 100 µM
COc1cc2c(cc1OC)/C(=C\c1ccccc1N)C(=O)OC2,,28.8 µM,,27.1 µM,,75.4 µM,,33.5 µM,,31 µM,,7.06 µM,,42.7 µM,,41.5 µM,,35.4 µM,,60.1 µM
COc1cc(-c2nc(SCCC(C)C)nc(Nc3ccc(S(N)(=O)=O)cc3)c2C#N)cc(OC)c1OC,2.06 µM,5.08 µM,4 µM,> 100 µM,3.67 µM,> 100 µM,2.8 µM,8.45 µM,2.01 µM,5.22 µM,2.88 µM,> 100 µM,2.92 µM,12.5 µM,4.04 µM,> 100 µM,3.84 µM,> 100 µM,3.46 µM,> 100 µM
CCN(CC)c1ccc(C(=O)c2ccc(N(CC)CC)cc2)cc1,0.515 µM,3.44 µM,0.364 µM,> 36.7 µM,0.666 µM,> 35.9 µM,0.372 µM,1.99 µM,0.436 µM,10.5 µM,0.383 µM,> 100 µM,0.74 µM,> 100 µM,23.1 µM,> 100 µM,4.1 µM,> 100 µM,0.607 µM,> 58.1 µM
CSc1nc(SC)c2c(CO)c(Br)n(Cc3ccccc3)c2n1,,> 100 µM,,23.6 µM,,33.7 µM,,30.5 µM,,29.1 µM,,> 100 µM,,> 100 µM,,> 100 µM,,> 100 µM,,> 100 µM
CC(=O)OCC1OC(n2c(-c3ccc(C)cc3)cc(-c3ccccc3)c(C#N)c2=O)C(OC(C)=O)C(OC(C)=O)C1OC(C)=O (stereo not drawn),,> 100 µM,,> 100 µM,,> 100 µM,,> 100 µM,,> 100 µM,,> 100 µM,,> 100 µM,,> 100 µM,,> 100 µM,,> 100 µM

SMILES,GI50 [1],TGI [1],GI50 [2],TGI [2],GI50 [3],TGI [3],GI50 [4],TGI [4],GI50 [5],TGI [5],GI50 [6],TGI [6],GI50 [7],TGI [7],GI50 [8],TGI [8],GI50 [9],TGI [9],GI50 [10],TGI [10]
COC(C)(C)C/C=C/C(C)=C/C=C/C(C)=C\C=C\C(C)=C\C=C\C=C(C)\C=C\C=C(C)\C=C\C=C(C)\C=C\CC(C)(C)OC,> 150 µg/mL,> 150 µg/mL,> 150 µg/mL,> 150 µg/mL,> 150 µg/mL,> 150 µg/mL,> 150 µg/mL,> 150 µg/mL,> 150 µg/mL,> 150 µg/mL,> 150 µg/mL,> 150 µg/mL,> 150 µg/mL,> 150 µg/mL,> 150 µg/mL,> 150 µg/mL,> 150 µg/mL,> 150 µg/mL,> 150 µg/mL,> 150 µg/mL
CCOC(=O)c1[nH]c(COC(C)=O)c2c1CCCCCCCCCC2,,> 100 µM,,> 100 µM,,> 100 µM,,> 100 µM,,> 100 µM,,> 100 µM,,> 100 µM,,,,> 100 µM,,> 100 µM
Cc1cc(C)c(-n2c(-c3ccc(Br)cc3)cs/c2=N\N=C2C=C(C(C)(C)C)C(=O)C(C(C)(C)C)=C2)c(C)c1,,> 100 µM,,> 100 µM,,> 100 µM,,> 100 µM,,> 100 µM,,> 100 µM,,> 100 µM,,> 100 µM,,> 100 µM,,> 100 µM
COc1cc2c(cc1OC)C13CCN4CC5CCOC6CC(=O)N2C1C6C5CC43 (stereo not drawn),,> 100 µM,,> 100 µM,,> 100 µM,,> 100 µM,,> 100 µM,,> 100 µM,,> 100 µM,,> 100 µM,,> 100 µM,,> 100 µM
CN(C)CCCNC(=O)c1cc(NC(=O)c2cc(NC(=O)CCNS(=O)(=O)c3ccc4c(c3)C(=O)c3ccccc3C4=O)cn2C)cn1C,> 100 µM,> 100 µM,> 100 µM,> 100 µM,> 100 µM,> 100 µM,> 100 µM,> 100 µM,> 100 µM,> 100 µM,> 100 µM,> 100 µM,> 100 µM,> 100 µM,,,> 100 µM,> 100 µM,> 100 µM,> 100 µM
Cc1cc(Cl)ccc1NC(=O)CC1SC(=Nc2ccccc2Cl)NC1=O (stereo not drawn),,47.1 µM,,> 100 µM,,> 100 µM,,> 100 µM,,55.3 µM,,> 100 µM,,> 100 µM,,> 100 µM,,> 100 µM,,> 100 µM
O=C1C(=O)c2cccnc2-c2ncccc21,1.03 µM,2.51 µM,0.605 µM,1.92 µM,0.224 µM,1.01 µM,0.0678 µM,0.774 µM,0.184 µM,0.502 µM,0.0797 µM,0.618 µM,0.319 µM,1.3 µM,0.472 µM,1.8 µM,0.328 µM,1.29 µM,1.04 µM,2.8 µM
CCN1CCN(CC(=O)N2c3cccc4cccc(c34)N(C(=O)CN3CCN(CC)CC3)C2c2cn(-c3ccccc3)nc2-c2cccc([N+](=O)[O-])c2)CC1,1.72 µM,3.39 µM,1.4 µM,2.9 µM,1.67 µM,3.47 µM,1.51 µM,3.14 µM,1.56 µM,2.94 µM,1.15 µM,3.51 µM,1.81 µM,3.59 µM,1.75 µM,3.2 µM,1.8 µM,3.45 µM,,
O=C1CCc2c(sc3[nH]c(=S)n(Cc4ccc(Cl)cc4)c(=O)c23)C1,1.92 µM,3.71 µM,0.451 µM,,0.442 µM,> 100 µM,0.377 µM,3.7 µM,0.356 µM,1.63 µM,0.479 µM,> 100 µM,0.345 µM,2.68 µM,0.64 µM,> 21.1 µM,0.743 µM,3.6 µM,0.497 µM,16.6 µM
Cc1cccc(NC(=O)c2cccc([N+](=O)[O-])c2O)c1C,,32.9 µM,,> 100 µM,,> 100 µM,,> 69.6 µM,,96.9 µM,,> 31.6 µM,,62.9 µM,,> 100 µM,,> 89.2 µM,,> 100 µM
CCN(CC)c1ccc(N=Nc2ccc(-c3nc4ccc[n+](C)c4o3)cc2)cc1,,5.41 µM,,26.3 µM,,31.4 µM,,29.2 µM,,20.3 µM,,19.8 µM,,28.6 µM,,,,16.3 µM,,27.1 µM
CCOc1ccc2nc(NC(=O)C(=O)C(c3cnc4ccccc4n3)[N+](=O)[O-])sc2c1 (stereo not drawn),,,,> 100 µM,,> 100 µM,,> 100 µM,,> 100 µM,,> 100 µM,,> 100 µM,,,,> 100 µM,,> 100 µM
NC(N)=NS(=O)(=O)c1ccc(NCCc2c3ccccc3nc3ccccc23)cc1,,> 100 µM,,> 100 µM,,> 100 µM,,> 100 µM,,> 100 µM,,> 100 µM,,,,> 100 µM,,> 100 µM,,> 100 µM
Cn1cc(C(=O)C[n+]2ccccc2)c2ccccc21,,> 100 µM,,> 100 µM,,,,> 100 µM,,> 100 µM,,> 100 µM,,> 100 µM,,,,,,> 100 µM
O=c1cccccc1[O-].O=c1cccccc1[O-].O=c1cccccc1[O-].[La+3],,,,> 100 µM,,,,> 100 µM,5.62 µM,38 µM,,51.3 µM,,> 100 µM,,,,> 100 µM,,> 100 µM
O=C(O)CCc1nn2c(nc1=O)sc1ccc3ccccc3c12,,> 100 µM,,> 100 µM,,> 100 µM,,> 100 µM,,> 100 µM,,> 100 µM,,> 100 µM,,> 100 µM,,,,> 100 µM
